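96-well plates; 48 h exposure; 5 concentrations. Endpoints by linear interpolation between flanking doses. Not reached: highest tested concentration assigned. GI50 marks 50% less growth. TGI denotes the concentration required for complete inhibition of growth.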
Tests used:
Assay in all cases: NCI-60 cell line screen, 48 h
HCC-2998 colon = tested on: HCC-2998 colon
OVCAR-5 ovarian = tested on: OVCAR-5 ovarian
IGROV1 ovarian = tested on: IGROV1 ovarian
HOP-92 NSCLC = tested on: HOP-92 NSCLC
OVCAR-8 ovarian = tested on: OVCAR-8 ovarian
MDA-MB-435 = tested on: MDA-MB-435
MDA-MB-231 breast = tested on: MDA-MB-231 breast
PC-3 prostate = tested on: PC-3 prostate
A498 renal = tested on: A498 renal
RXF 393 renal = tested on: RXF 393 renal
SK-MEL-28 melanoma = tested on: SK-MEL-28 melanoma
MALME-3M melanoma = tested on: MALME-3M melanoma
HCT-15 colon = tested on: HCT-15 colon
MDA-N = tested on: MDA-N
CAKI-1 renal = tested on: CAKI-1 renal
SF-295 CNS = tested on: SF-295 CNS
HCT-116 colon = tested on: HCT-116 colon
HT29 colon = tested on: HT29 colon
SF-539 CNS = tested on: SF-539 CNS
TK-10 renal = tested on: TK-10 renal
NCI-H460 lung = tested on: NCI-H460 lung
SN12C renal = tested on: SN12C renal
NCI-H522 lung = tested on: NCI-H522 lung
BT-549 breast = tested on: BT-549 breast
UO-31 renal = tested on: UO-31 renal
SR leukemia = tested on: SR leukemia
SK-MEL-2 melanoma = tested on: SK-MEL-2 melanoma
HL-60(TB) leukemia = tested on: HL-60(TB) leukemia
NCI/ADR-RES ovarian = tested on: NCI/ADR-RES ovarian
T-47D breast = tested on: T-47D breast
M14 melanoma = tested on: M14 melanoma
OVCAR-4 ovarian = tested on: OVCAR-4 ovarian
MCF7 breast = tested on: MCF7 breast
DU-145 prostate = tested on: DU-145 prostate
COLO 205 colon = tested on: COLO 205 colon
SNB-75 CNS = tested on: SNB-75 CNS
KM12 colon = tested on: KM12 colon
K-562 leukemia = tested on: K-562 leukemia
SW-620 colon = tested on: SW-620 colon
ACHN renal = tested on: ACHN renal
NCI-H226 lung = tested on: NCI-H226 lung
SK-MEL-5 melanoma = tested on: SK-MEL-5 melanoma
786-0 renal = tested on: 786-0 renal
NCI-H23 lung = tested on: NCI-H23 lung
A549 NSCLC = tested on: A549 NSCLC
SNB-19 CNS = tested on: SNB-19 CNS
MOLT-4 leukemia = tested on: MOLT-4 leukemia
SF-268 CNS = tested on: SF-268 CNS
RPMI-8226 leukemia = tested on: RPMI-8226 leukemia
UACC-62 melanoma = tested on: UACC-62 melanoma
U251 CNS = tested on: U251 CNS
UACC-257 melanoma = tested on: UACC-257 melanoma
OVCAR-3 ovarian = tested on: OVCAR-3 ovarian
CCRF-CEM leukemia = tested on: CCRF-CEM leukemia
LOX IMVI melanoma = tested on: LOX IMVI melanoma
HOP-62 NSCLC = tested on: HOP-62 NSCLC
EKVX NSCLC = tested on: EKVX NSCLC
HS 578T breast = tested on: HS 578T breast
SK-OV-3 ovarian = tested on: SK-OV-3 ovarian

Compound: CCN(CC)CCNc1nc2ccc([N+](=O)[O-])cc2[n+]([O-])n1
- TGI (HCC-2998 colon): 44.8 µM
- TGI (OVCAR-5 ovarian): 31.7 µM
- TGI (IGROV1 ovarian): 38.3 µM
- TGI (HOP-92 NSCLC): > 100 µM
- TGI (OVCAR-8 ovarian): 43.1 µM
- TGI (MDA-MB-435): 29.5 µM
- TGI (MDA-MB-231 breast): 33.1 µM
- TGI (PC-3 prostate): 75.3 µM
- TGI (A498 renal): 49.7 µM
- TGI (RXF 393 renal): > 100 µM
- TGI (SK-MEL-28 melanoma): > 100 µM
- TGI (MALME-3M melanoma): 4.28 µM
- TGI (HCT-15 colon): 39.8 µM
- TGI (MDA-N): 29.5 µM
- TGI (CAKI-1 renal): > 100 µM
- TGI (SF-295 CNS): 82.1 µM
- TGI (HCT-116 colon): 49.6 µM
- TGI (HT29 colon): 52.1 µM
- TGI (SF-539 CNS): 54.2 µM
- TGI (TK-10 renal): > 100 µM
- TGI (NCI-H460 lung): 56.8 µM
- TGI (SN12C renal): 54.9 µM
- TGI (NCI-H522 lung): > 100 µM
- TGI (BT-549 breast): > 100 µM
- TGI (UO-31 renal): > 100 µM
- TGI (SR leukemia): > 100 µM
- TGI (SK-MEL-2 melanoma): 35.3 µM
- TGI (HL-60(TB) leukemia): 17.9 µM
- TGI (NCI/ADR-RES ovarian): 70.5 µM
- TGI (T-47D breast): 40.6 µM
- TGI (M14 melanoma): 41.2 µM
- TGI (OVCAR-4 ovarian): 26.5 µM
- TGI (MCF7 breast): 9.86 µM
- TGI (DU-145 prostate): > 100 µM
- TGI (COLO 205 colon): 18.6 µM
- TGI (SNB-75 CNS): > 100 µM
- TGI (KM12 colon): > 100 µM
- TGI (K-562 leukemia): 54.3 µM
- TGI (SW-620 colon): 64.1 µM
- TGI (ACHN renal): > 100 µM
- TGI (NCI-H226 lung): > 100 µM
- TGI (SK-MEL-5 melanoma): 22.3 µM
- TGI (786-0 renal): > 100 µM
- TGI (NCI-H23 lung): 47.4 µM
- TGI (A549 NSCLC): 61 µM
- TGI (SNB-19 CNS): > 100 µM
- TGI (MOLT-4 leukemia): 50.6 µM
- TGI (SF-268 CNS): > 100 µM
- TGI (RPMI-8226 leukemia): 44.9 µM
- TGI (UACC-62 melanoma): 35 µM
- TGI (U251 CNS): 77.2 µM
- TGI (UACC-257 melanoma): 31.2 µM
- TGI (OVCAR-3 ovarian): > 100 µM
- TGI (CCRF-CEM leukemia): 85.3 µM

Compound: COc1nc2ccccc2cc1-c1nc2c(cnn2-c2ccc(Br)cc2)c(=O)[nH]1
- GI50 (HCC-2998 colon): 0.587 µM
- TGI (HCC-2998 colon): > 50 µM
- GI50 (OVCAR-5 ovarian): 0.798 µM
- TGI (OVCAR-5 ovarian): > 50 µM
- GI50 (IGROV1 ovarian): 0.0591 µM
- TGI (IGROV1 ovarian): > 50 µM
- GI50 (HOP-92 NSCLC): 0.127 µM
- TGI (HOP-92 NSCLC): > 28.3 µM
- GI50 (OVCAR-8 ovarian): 0.0577 µM
- TGI (OVCAR-8 ovarian): > 50 µM
- GI50 (LOX IMVI melanoma): 0.0276 µM
- TGI (LOX IMVI melanoma): > 50 µM
- GI50 (MDA-MB-435): 0.00957 µM
- TGI (MDA-MB-435): 0.024 µM
- GI50 (MDA-MB-231 breast): 0.133 µM
- TGI (MDA-MB-231 breast): > 27.4 µM
- GI50 (PC-3 prostate): 0.0231 µM
- TGI (PC-3 prostate): > 50 µM
- GI50 (A498 renal): 0.0139 µM
- TGI (A498 renal): 0.521 µM
- GI50 (RXF 393 renal): 0.0163 µM
- TGI (RXF 393 renal): 0.245 µM
- GI50 (SK-MEL-28 melanoma): 0.361 µM
- TGI (SK-MEL-28 melanoma): > 50 µM
- GI50 (MALME-3M melanoma): 0.519 µM
- TGI (MALME-3M melanoma): > 50 µM
- GI50 (HCT-15 colon): 0.0261 µM
- TGI (HCT-15 colon): > 50 µM
- GI50 (CAKI-1 renal): 0.0196 µM
- TGI (CAKI-1 renal): > 50 µM
- GI50 (SF-295 CNS): 0.0195 µM
- TGI (SF-295 CNS): 1.62 µM
- GI50 (HCT-116 colon): 0.0196 µM
- TGI (HCT-116 colon): > 50 µM
- GI50 (HOP-62 NSCLC): 0.0363 µM
- TGI (HOP-62 NSCLC): 7.39 µM
- GI50 (HT29 colon): 0.0191 µM
- TGI (HT29 colon): > 50 µM
- GI50 (SF-539 CNS): 0.0194 µM
- TGI (SF-539 CNS): 1.63 µM
- GI50 (TK-10 renal): 0.21 µM
- TGI (TK-10 renal): 8.8 µM
- GI50 (NCI-H460 lung): 0.0241 µM
- TGI (NCI-H460 lung): > 50 µM
- GI50 (SN12C renal): 0.0739 µM
- TGI (SN12C renal): > 50 µM
- GI50 (NCI-H522 lung): 0.0153 µM
- GI50 (BT-549 breast): 0.156 µM
- TGI (BT-549 breast): > 25.1 µM
- GI50 (UO-31 renal): 0.0603 µM
- TGI (UO-31 renal): > 50 µM
- GI50 (SR leukemia): 0.0116 µM
- TGI (SR leukemia): 5.41 µM
- GI50 (SK-MEL-2 melanoma): 0.0946 µM
- TGI (SK-MEL-2 melanoma): 9.22 µM
- GI50 (HL-60(TB) leukemia): 0.0158 µM
- TGI (HL-60(TB) leukemia): 0.0815 µM
- GI50 (NCI/ADR-RES ovarian): 0.0186 µM
- TGI (NCI/ADR-RES ovarian): 1.58 µM
- GI50 (T-47D breast): 0.0413 µM
- TGI (T-47D breast): > 50 µM
- GI50 (M14 melanoma): 0.0204 µM
- TGI (M14 melanoma): 2.33 µM
- TGI (OVCAR-4 ovarian): > 50 µM
- GI50 (EKVX NSCLC): 0.0817 µM
- TGI (EKVX NSCLC): > 50 µM
- GI50 (MCF7 breast): 0.0201 µM
- TGI (MCF7 breast): > 50 µM
- GI50 (DU-145 prostate): 0.0344 µM
- TGI (DU-145 prostate): 13.8 µM
- GI50 (COLO 205 colon): 0.0545 µM
- GI50 (HS 578T breast): 0.0282 µM
- TGI (HS 578T breast): 4.71 µM
- GI50 (SNB-75 CNS): 0.0161 µM
- TGI (SNB-75 CNS): 1.46 µM
- GI50 (KM12 colon): 0.0226 µM
- TGI (KM12 colon): > 50 µM
- GI50 (K-562 leukemia): 0.0182 µM
- TGI (K-562 leukemia): 13.4 µM
- GI50 (SW-620 colon): 0.0228 µM
- TGI (SW-620 colon): > 50 µM
- GI50 (ACHN renal): 0.0345 µM
- TGI (ACHN renal): > 50 µM
- GI50 (NCI-H226 lung): 0.51 µM
- TGI (NCI-H226 lung): > 50 µM
- GI50 (SK-MEL-5 melanoma): 0.0293 µM
- GI50 (786-0 renal): 0.0403 µM
- TGI (786-0 renal): 8.6 µM
- GI50 (NCI-H23 lung): 0.0825 µM
- TGI (NCI-H23 lung): 10.9 µM
- GI50 (A549 NSCLC): 0.0837 µM
- TGI (A549 NSCLC): > 50 µM
- GI50 (SNB-19 CNS): 0.0244 µM
- TGI (SNB-19 CNS): 15.1 µM
- GI50 (MOLT-4 leukemia): 0.0879 µM
- TGI (MOLT-4 leukemia): > 50 µM
- GI50 (SF-268 CNS): 0.131 µM
- TGI (SF-268 CNS): > 50 µM
- GI50 (SK-OV-3 ovarian): 0.0638 µM
- TGI (SK-OV-3 ovarian): 24.5 µM
- GI50 (RPMI-8226 leukemia): 0.0402 µM
- TGI (RPMI-8226 leukemia): 6.79 µM
- GI50 (UACC-62 melanoma): 0.0234 µM
- TGI (UACC-62 melanoma): > 50 µM
- GI50 (U251 CNS): 0.0241 µM
- TGI (U251 CNS): 7.42 µM
- GI50 (UACC-257 melanoma): 6.77 µM
- TGI (UACC-257 melanoma): > 50 µM
- GI50 (OVCAR-3 ovarian): 0.0171 µM
- TGI (OVCAR-3 ovarian): 0.219 µM
- GI50 (CCRF-CEM leukemia): 0.0238 µM
- TGI (CCRF-CEM leukemia): > 31.8 µM

— PubChem BioAssay (NCI)
